In patent publication US11111237B2, “Bicyclic compound and use thereof” (SK BIOPHARMACEUTICALS CO., LTD., priority 2019, dated 2021):
Counter-ions that a name gives are not always drawn.

Molecular target: PRMT5-MEP50 enzyme complex (Homo sapiens (Human), UniProt O14744)
Assay: PRMT5 enzyme activity in vitro assay (methylation of histone H4R3, ELISA absorbance at 450 nm)
Type: biochemical
Settings: SAM, histone H4 peptide, room temperature 2 hours, 8 points from 10 μM to 0.128 nM
In short: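 Human PRMT5-MEP50 was prepared at 5 μg/mL with SAM at 2 μM and reacted 2 h at room temperature on plate-coated histone H4 (1-20) peptide. An 8-point 1:5 compound series ran from 10 μM to 0.128 nM. H4R3 methylation was detected by antibody/HRP ELISA at 450 nm to give IC50.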

Sequence of PRMT5-MEP50 enzyme complex (O14744 2-637): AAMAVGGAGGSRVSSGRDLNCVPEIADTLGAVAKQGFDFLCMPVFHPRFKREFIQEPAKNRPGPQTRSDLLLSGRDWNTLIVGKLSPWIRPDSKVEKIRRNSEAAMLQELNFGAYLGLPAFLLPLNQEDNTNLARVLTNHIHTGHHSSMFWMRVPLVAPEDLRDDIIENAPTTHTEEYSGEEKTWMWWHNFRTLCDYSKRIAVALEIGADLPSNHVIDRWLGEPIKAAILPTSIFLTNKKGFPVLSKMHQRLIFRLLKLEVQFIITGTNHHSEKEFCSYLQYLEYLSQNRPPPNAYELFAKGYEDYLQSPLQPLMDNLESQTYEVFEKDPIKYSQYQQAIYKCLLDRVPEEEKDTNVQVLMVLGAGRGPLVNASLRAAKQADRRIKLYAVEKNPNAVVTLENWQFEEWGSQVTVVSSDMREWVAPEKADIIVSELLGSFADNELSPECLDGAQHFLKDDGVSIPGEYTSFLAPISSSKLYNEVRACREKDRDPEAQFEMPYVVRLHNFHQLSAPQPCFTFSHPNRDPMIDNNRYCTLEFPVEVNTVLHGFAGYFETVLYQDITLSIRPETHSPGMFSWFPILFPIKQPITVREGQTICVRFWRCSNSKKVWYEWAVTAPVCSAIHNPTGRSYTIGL
Sequence of PRMT5-MEP50 enzyme complex (Q9BQA1 2-342 partner): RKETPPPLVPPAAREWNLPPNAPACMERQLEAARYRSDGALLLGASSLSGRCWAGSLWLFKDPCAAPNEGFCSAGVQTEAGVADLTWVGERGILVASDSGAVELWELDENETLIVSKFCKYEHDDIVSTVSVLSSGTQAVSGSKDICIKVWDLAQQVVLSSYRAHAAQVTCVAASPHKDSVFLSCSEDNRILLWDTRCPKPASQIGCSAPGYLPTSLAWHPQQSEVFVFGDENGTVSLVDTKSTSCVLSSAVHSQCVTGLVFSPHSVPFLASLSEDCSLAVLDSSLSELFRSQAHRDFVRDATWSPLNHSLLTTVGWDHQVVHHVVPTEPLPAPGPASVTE

| IC50 [nM] | Compound |
| --- | --- |
| 100 to 1000 | O=C(c1ccc2c(c1)OCCN(C[C@H](O)CN1CCc3ccccc3C1)C2=O)N1CCCCC1 [Example 176, 4-[(2R)-3-(3,4-dihydro-1H-isoquinolin-2-yl)-2-hydroxy-propyl]-8-(piperidine-1-carbonyl)-2,3-dihydro-1,4-benzoxazepin-5-one] |
| 100 to 1000 | CC1CC(C)CN(Cc2ccc3c(c2)OCCN(C[C@H](O)CN2CCc4ccccc4C2)C3=O)C1 (stereo partly drawn) [Example 33, 4-[(2R)-3-(3,4-dihydro-1H-isoquinolin-2-yl)-2-hydroxy-propyl]-8-[(3,5-dimethyl-1-piperidyl)methyl]-2,3-dihydro-1,4-benzoxazepin-5-one] |
| 100 to 1000 | O=C(c1ccc2c(c1)OCCN(C[C@H](O)CN1CCc3ccccc3C1)C2=O)N1CCC(F)(F)CC1 [Example 196, 8-(4,4-difluoropiperidine-1-carbonyl)-4-[(2R)-3-(3,4-dihydro-1H-isoquinolin-2-yl)-2-hydroxy-propyl]-2,3-dihydro-1,4-benzoxazepin-5-one] |
| 1 to 100 | O=C1c2ccc(CN3CCCC(F)C3)cc2OCCN1C[C@H](O)CN1CCc2ccccc2C1 (stereo partly drawn) [Example 43, 4-[(2R)-3-(3,4-dihydro-1H-isoquinolin-2-yl)-2-hydroxy-propyl]-8-[(3-fluoro-1-piperidyl)methyl]-2,3-dihydro-1,4-benzoxazepin-5-one] |
| 1 to 100 | CN1CCCC(COc2ccc3c(c2)OCCN(C[C@H](O)CN2CCc4ccccc4C2)C3=O)C1 (stereo partly drawn) [Example 107, 4-[(2R)-3-(3,4-dihydro-1H-isoquinolin-2-yl)-2-hydroxy-propyl]-8-[(1-methyl-3-piperidyl)methoxy]-2,3-dihydro-1,4-benzoxazepin-5-one] |
| 1 to 100 | CC(=O)N1CC[C@@H](Oc2ccc3c(c2)OCCN(C[C@H](O)CN2CCc4ccccc4C2)C3=O)C1 [Example 81, 8-[(3R)-1-acetylpyrrolidin-3-yl]oxy-4-[(2R)-3-(3,4-dihydro-1H-isoquinolin-2-yl)-2-hydroxy-propyl]-2,3-dihydro-1,4-benzoxazepin-5-one] |
| 100 to 1000 | CCN1CCC(COc2ccc3c(c2)OCCN(C[C@H](O)CN2CCc4ccccc4C2)C3=O)CC1 [Example 103, 4-[(2R)-3-(3,4-dihydro-1H-isoquinolin-2-yl)-2-hydroxy-propyl]-8-[(1-ethyl-4-piperidyl)methoxy]-2,3-dihydro-1,4-benzoxazepin-5-one] |
| 100 to 1000 | CN1CCC[C@H](Oc2ccc3c(c2)OCCN(C[C@H](O)CN2CCc4ccccc4C2)C3=O)C1 [Example 213, 4-[(2R)-3-(3,4-dihydro-1H-isoquinolin-2-yl)-2-hydroxy-propyl]-8-[(1-methyl-3-piperidyl)oxy]-2,3-dihydro-1,4-benzoxazepin-5-one] |
| 1 to 100 | O=C1c2ccc(CN3CCC(O)CC3)cc2OCCN1C[C@H](O)CN1CCc2ccccc2C1 [Example 45, 4-[(2R)-3-(3,4-dihydro-1H-isoquinolin-2-yl)-2-hydroxy-propyl]-8-[(4-hydroxy-1-piperidyl)methyl]-2,3-dihydro-1,4-benzoxazepin-5-one] |
| 1 to 100 | CC(C)Cc1ccc2c(c1)OCCN(C[C@H](O)CN1CCc3ccccc3C1)C2=O [Example 12, 4-[(2R)-3-(3,4-dihydro-1H-isoquinolin-2-yl)-2-hydroxy-propyl]-8-isobutyl-2,3-dihydro-1,4-benzoxazepin-5-one] |
| 100 to 1000 | CN(C)Cc1ccc2c(c1)OCCN(C[C@H](O)CN1CCc3ccccc3C1)C2=O [Example 25, 4-[(2R)-3-(3,4-dihydro-1H-isoquinolin-2-yl)-2-hydroxy-propyl]-8-[(dimethylamino)methyl]-2,3-dihydro-1,4-benzoxazepin-5-one] |
| 100 to 1000 | COC1CCN(Cc2ccc3c(c2)OCCN(C[C@H](O)CN2CCc4ccccc4C2)C3=O)CC1 [Example 38, 4-[(2R)-3-(3,4-dihydro-1H-isoquinolin-2-yl)-2-hydroxy-propyl]-8-[(4-methoxy-1-piperidyl)methyl]-2,3-dihydro-1,4-benzoxazepin-5-one] |
| 100 to 1000 | CC1(C)CN(C[C@H](O)CN2CCc3ccccc3C2)C(=O)c2ccc(CN3CCOCC3)cc2O1 [Example 111, 4-[(2R)-3-(3,4-dihydro-1H-isoquinolin-2-yl)-2-hydroxy-propyl]-2,2-dimethyl-8-(morpholinomethyl)-3H-1,4-benzoxazepin-5-one] |
| 1 to 100 | O=C1c2ccc(CN3CC4CCCC4C3)cc2OCCN1C[C@H](O)CN1CCc2ccccc2C1 (stereo partly drawn) [Example 34, 8-(3,3a,4,5,6,6a-hexahydro-1H-cyclopenta[c]pyrrol-2-ylmethyl)-4-[(2R)-3-(3,4-dihydro-1H-isoquinolin-2-yl)-2-hydroxy-propyl]-2,3-dihydro-1,4-benzoxazepin-5-one] |
| 1 to 100 | O=C1c2ccc(CN3CCCCC3)cc2OCCN1C[C@H](O)CN1CCc2ccccc2C1 [Example 23, 4-[(2R)-3-(3,4-dihydro-1H-isoquinolin-2-yl)-2-hydroxy-propyl]-8-(1-piperidylmethyl)-2,3-dihydro-1,4-benzoxazepin-5-one] |
| 100 to 1000 | O=C1c2ccc(CN3CCn4cccc4C3)cc2OCCN1C[C@H](O)CN1CCc2ccccc2C1 [Example 249, 4-[(2R)-3-(3,4-dihydro-1H-isoquinolin-2-yl)-2-hydroxypropyl]-8-(3,4-dihydro-1H-pyrrolo[1,2-a]pyrazin-2-ylmethyl)-2,3-dihydro-1,4-benzoxazepin-5-one] |

Further lines, the compound ahead of its results:

| Compound | IC50 [nM] |
| --- | --- |
| CN(C)CCOc1ccc2c(c1)OCCN(C[C@H](O)CN1CCc3ccccc3C1)C2=O [Example 72, 4-[(2R)-3-(3,4-dihydro-1H-isoquinolin-2-yl)-2-hydroxy-propyl]-8-[2-(dimethylamino)ethoxy]-2,3-dihydro-1,4-benzoxazepin-5-one] | 100 to 1000 |
| CC1(CN2CCC(Oc3ccc4c(c3)OCCN(C[C@H](O)CN3CCc5ccccc5C3)C4=O)CC2)COC1 [Example 165, 4-[(2R)-3-(3,4-dihydro-1H-isoquinolin-2-yl)-2-hydroxypropyl]-8-[[1-[(3-methyloxetan-3-yl)methyl]-4-piperidyl]oxy]-2,3-dihydro-1,4-benzoxazepin-5-one] | 1 to 100 |
| CN1CCN(C[C@H](O)CN2CCc3ccccc3C2)C(=O)c2ccc(OC3CCN(C4COC4)CC3)cc21 [Example 129, 4-[(2R)-3-(3,4-dihydro-1H-isoquinolin-2-yl)-2-hydroxy-propyl]-1-methyl-8-[[1-(oxetan-3-yl)-4-piperidyl]oxy]-2,3-dihydro-1,4-benzodiazepin-5-one] | 100 to 1000 |
| O=C1c2ccc(OC3CCN(C(=O)C(F)F)CC3)cc2OCCN1C[C@H](O)CN1CCc2ccccc2C1 [Example 160, 8-[[1-(2,2-difluoroacetyl)-4-piperidyl]oxy]-4-[(2R)-3-(3,4-dihydro-1H-isoquinolin-2-yl)-2-hydroxy-propyl]-2,3-dihydro-1,4-benzoxazepin-5-one] | 1 to 100 |
| Cn1cc(-c2ccc3c(c2)OCCN(C[C@H](O)CN2CCc4ccccc4C2)C3=O)cn1 [Example 232, 4-[(2R)-3-(3,4-dihydro-1H-isoquinolin-2-yl)-2-hydroxy-propyl]-8-(1-methylpyrazol-4-yl)-2,3-dihydro-1,4-benzoxazepin-5-one] | 100 to 1000 |
| CC1(C)CN(C[C@H](O)CN2CCc3ccccc3C2)C(=O)c2ccc(OC3CCN(CCO)CC3)nc2O1 [Example 234, 4-[(2R)-3-(3,4-dihydro-1H-isoquinolin-2-yl)-2-hydroxy-propyl]-8-[[1-(2-hydroxyethyl)-4-piperidyl]oxy]-2,2-dimethyl-3H-pyrido[3,2-f][1,4]oxazepin-5-one] | 1 to 100 |
| CN1CCN(C(=O)c2ccc3c(c2)OCCN(C[C@H](O)CN2CCc4ccccc4C2)C3=O)CC1 [Example 178, 4-[(2R)-3-(3,4-dihydro-1H-isoquinolin-2-yl)-2-hydroxy-propyl]-8-(4-methylpiperazine-1-carbonyl)-2,3-dihydro-1,4-benzoxazepin-5-one] | 100 to 1000 |
| CC(O)CN1CCC(Oc2ccc3c(c2)O[C@H](C)CN(C[C@H](O)CN2CCc4ccccc4C2)C3=O)CC1 (stereo partly drawn) [Example 245, (2R)-4-[(2R)-3-(3,4-dihydro-1H-isoquinolin-2-yl)-2-hydroxy-propyl]-8-[[1-(2-hydroxypropyl)-4-piperidyl]oxy]-2-methyl-2,3-dihydro-1,4-benzoxazepin-5-one] | 100 to 1000 |
| O=C1c2ccc(OS(=O)(=O)C(F)(F)F)cc2CCCN1C[C@H](O)CN1CCc2ccccc2C1 [Example 8, [2-[(2R)-3-(3,4-dihydro-1H-isoquinolin-2-yl)-2-hydroxy-propyl]-1-oxo-4,5-dihydro-3H-2-benzazepin-7-yl]trifluoromethanesulfonate] | 100 to 1000 |
| C[C@H](O)CN1CCC(Oc2ccc3c(c2)O[C@H](C)CN(C[C@H](O)CN2CCc4ccccc4C2)C3=O)CC1 [Example 267, (2R)-4-[(2R)-3-(3,4-dihydro-1H-isoquinolin-2-yl)-2-hydroxy-propyl]-8-[[1-[(2S)-2-hydroxypropyl]-4-piperidyl]oxy]-2-methyl-2,3-dihydro-1,4-benzoxazepin-5-one] | 100 to 1000 |
| CC(O)C#Cc1ccc2c(c1)OCCN(C[C@H](O)CN1CCc3ccccc3C1)C2=O (stereo partly drawn) [Example 228, 4-[(2R)-3-(3,4-dihydro-1H-isoquinolin-2-yl)-2-hydroxy-propyl]-8-(3-hydroxybu-1-tynyl)-2,3-dihydro-1,4-benzoxazepin-5-one] | 1 to 100 |
| CC1CC(Oc2ccc3c(c2)N(C)CCN(C[C@H](O)CN2CCc4ccccc4C2)C3=O)CCN1 (stereo partly drawn) [Example 138, 4-[(2R)-3-(3,4-dihydro-1H-isoquinolin-2-yl)-2-hydroxy-propyl]-1-methyl-8-[(2-methyl-4-piperidyl)oxy]-2,3-dihydro-1,4-benzodiazepin-5-one; dihydrochloride] | 100 to 1000 |
| CN1CCN(C[C@H](O)CN2CCc3ccccc3C2)C(=O)c2ccc(OCc3ccncc3F)cc21 [Example 134, 4-[(2R)-3-(3,4-dihydro-1H-isoquinolin-2-yl)-2-hydroxy-propyl]-8-[(3-fluoro-4-pyridyl)methoxy]-1-methyl-2,3-dihydro-1,4-benzodiazepin-5-one] | 1 to 100 |
